Like-named read-outs stand apart in the source and are kept apart here.
Experiments:
T. b. brucei s427 [1] = tested on: T. b. brucei s427; design: method as in earlier work; details: cited from earlier work
T. b. brucei B48 = assay: microbe, parasite or virus in culture; assay type: cell-based, Trypanosoma brucei brucei; details: for T. b. brucei B48 RF: RF = EC50 (parasite)/EC50(s427 WT); for T. b. brucei B48 SI: SI = EC50 (HEK)/EC50(parasite); for EC50: Trypanosoma brucei, read-out: T. b. brucei B48 EC50, multi-drug-resistant clone, average ± SEM
[2] = tested on: Trypanosoma congolense (IL3000); assay: resazurin drug sensitivity assay, T. congolense; assay type: cell-based; details: for T. congolense RF: RF = EC50 (parasite)/EC50(s427 WT); for T. congolense SI: SI = EC50 (HEK)/EC50(parasite); for EC50: Trypanosoma congolense, average ± SEM
T. equiperdum (BoTat1) = assay: resazurin drug sensitivity assay, T. equiperdum; assay type: cell-based, Trypanosoma equiperdum; details: for T. equiperdum RF: RF = EC50 (parasite)/EC50(s427 WT); for T. equiperdum SI: SI = EC50 (HEK)/EC50(parasite); for EC50: average ± SEM
T. evansi (AnTat 3/3) = assay: resazurin drug sensitivity assay, T. evansi; assay type: cell-based, Trypanosoma evansi; details: for T. evansi RF: RF = EC50 (parasite)/EC50(s427 WT); for T. evansi SI: SI = EC50 (HEK)/EC50(parasite); for EC50: Trypanosoma evansi, average ± SEM
T. b. brucei s427 [3] = assay: resazurin drug sensitivity assay, T. b. brucei s427 wild-type bloodstream forms; assay type: cell-based, Trypanosoma brucei brucei; details: for T. b. brucei s427 SI: SI = EC50 (HEK)/EC50(parasite); for EC50: read-out: T. b. brucei s427 EC50
HEK 293 cells = assay: toxicity assay on HEK 293 cells (Alamar Blue); details: for EC50: read-out: HEK 293 EC50, average ± SEM
[4] = tested on: Leishmania mexicana promastigotes; assay: resazurin drug sensitivity assay, L. mexicana promastigotes; assay type: cell-based; details: average ± SEM; for EC50: Leishmania mexicana
T. b. brucei s427 [5] = tested on: T. b. brucei s427; design: method as in PMID 27313159; details: cited from earlier work
[6] = tested on: trypanosomes of the Trypanozoon subgenus (T. b. brucei, T. evansi and T. equiperdum); assay: resazurin assay, summary over Trypanozoon subgenus trypanosomes; assay type: cell-based, Trypanosoma
[7] = printed in brackets beside the µg/mL value
[8] = Trypanosoma brucei, average ± SEM, at least three independent determinations
[9] = promastigotes, read-out: L. mexicana EC50

COc1ccc2c(c1OC)C(CC(C)=O)N(C)c1c-2ccc2cc3c(cc12)OCO3 (centres unmarked) [6-Acetonyl-5,6-dihydrochelerythrine]
activity against T. b. brucei s427 (T. b. brucei s427 [1]): no significant activity

COc1ccc(C(=O)C[C@H](O)c2c(O)cc(OC)cc2OC)cc1 [Compound 1, (S)-3-hydroxy-3-(2″-hydroxy-4″,6″-dimethoxyphenyl)-1-(4′-methoxyphenyl)propan-1-one]
T. b. brucei B48 RF (T. b. brucei B48): 1.4 | T. b. brucei B48 SI (T. b. brucei B48): >6.0 | EC50 (T. b. brucei B48): 50.2 ± 15 µM | T. congolense RF [2]: 6.9 | T. congolense SI [2]: >1.2 | EC50 [2]: 246 ± 5 µM | T. equiperdum RF (T. equiperdum (BoTat1)): 0.60 | T. equiperdum SI (T. equiperdum (BoTat1)): >14 | EC50 (T. equiperdum (BoTat1); Trypanosoma equiperdum): ~20 µM | EC50 (T. equiperdum (BoTat1)): 21.4 ± 3.9 µM | T. evansi RF (T. evansi (AnTat 3/3)): 1.3 | T. evansi SI (T. evansi (AnTat 3/3)): >6.5 | EC50 (T. evansi (AnTat 3/3)): 46 ± 2.4 µM | T. b. brucei s427 SI (T. b. brucei s427 [3]): >8.5 | EC50 (T. b. brucei s427 [3]; Trypanosoma brucei): 35.5 ± 3.6 µM | toxicity to HEK 293 cells at the highest concentration tested (HEK 293 cells; highest tested concentration 100 or 200 µg/mL (1: 300 µM; 4: 140 µM; 5: 427 µM)): non-toxic | EC50 (HEK 293 cells): > 300 µM | EC50 ([4]; read-out: L. mexicana EC50, promastigotes): 581 ± 3 µM

CC(=O)O[C@@H]1[C@H]2[C@H]3[C@H]([C@H](OC(C)=O)[C@H](OC(C)=O)[C@]2(C)[C@@H]2[C@@H]1[C@]1(C)C(=C[C@H]2C)OC(=O)[C@@]1(C)O)[C@]1(C)[C@H](C[C@@H]2O[C@@H]2[C@@H]1OC(C)=O)C(=O)[C@@H]3O [Compound 3, taccalonolide A]
activity against T. b. brucei s427 (T. b. brucei s427 [5]): 11.42 µg/mL | activity against T. b. brucei s427 (T. b. brucei s427 [5]; [7]): 16.3 µM | EC50 ([6]; Trypanosoma brucei, T. b. brucei s427, B48, T. evansi, T. equiperdum, read-out: EC50 values against trypanosomes of the Trypanozoon subgenus (range)): 45.4 to 66.3 µM | RF (cross-resistance) with B48, T. evansi and T. equiperdum ([6]; relative to s427): ≤ 1 | T. b. brucei B48 RF (T. b. brucei B48): 0.7 | T. b. brucei B48 SI (T. b. brucei B48): >3.1 | EC50 (T. b. brucei B48): 45.4 ± 4.1 µM | T. congolense RF [2]: 1.6 | T. congolense SI [2]: >1.4 | EC50 [2]: 105 ± 41 µM | T. equiperdum RF (T. equiperdum (BoTat1)): 0.86 | T. equiperdum SI (T. equiperdum (BoTat1)): >2.6 | EC50 (T. equiperdum (BoTat1); Trypanosoma equiperdum): 55.8 µM | T. evansi RF (T. evansi (AnTat 3/3)): 1.0 | T. evansi SI (T. evansi (AnTat 3/3)): >2.2 | EC50 (T. evansi (AnTat 3/3)): 66.3 ± 9.5 µM | T. b. brucei s427 SI (T. b. brucei s427 [3]): >2.2 | EC50 (T. b. brucei s427 [3]; [8]): 64.7 ± 21.2 µM | EC50 (HEK 293 cells): > 143 µM | EC50 [4, 9]: > 285 µM | L. mexicana EC50 ([4]; promastigotes): low activity

CCC(=O)O[C@H]1[C@@H](OC(C)=O)[C@H]2[C@H]([C@@H]3[C@@H](OC(C)=O)[C@@H]4[C@H]([C@H](C)C=C5OC(=O)[C@@](C)(O)[C@@]54C)[C@]31C)[C@@H](O)C(=O)[C@H]1C[C@@H]3O[C@@H]3[C@H](OC(C)=O)[C@]21C [Compound 4, Taccalonolide A 12-propanoate]
activity against T. b. brucei s427 (T. b. brucei s427 [5]): 3.13 µg/mL | activity against T. b. brucei s427 (T. b. brucei s427 [5]; [7]): 4.6 µM | T. b. brucei B48 RF (T. b. brucei B48): 1.4 | T. b. brucei B48 SI (T. b. brucei B48): >1.9 | EC50 (T. b. brucei B48): 75.1 ± 12.3 µM | T. congolense RF [2]: >2.8 | EC50 [2]: > 140 µM | T. equiperdum RF (T. equiperdum (BoTat1)): 1.5 | T. equiperdum SI (T. equiperdum (BoTat1)): >1.8 | EC50 (T. equiperdum (BoTat1); Trypanosoma equiperdum): 77.7 ± 10.5 µM | T. evansi RF (T. evansi (AnTat 3/3)): 1.6 | T. evansi SI (T. evansi (AnTat 3/3)): >1.7 | EC50 (T. evansi (AnTat 3/3)): 82.7 ± 7.4 µM | T. b. brucei s427 SI (T. b. brucei s427 [3]): >2.6 | EC50 (T. b. brucei s427 [3]; [8]): 53.4 µM | EC50 (T. b. brucei s427 [3]; average ± SEM, at least three independent determinations): 53.3 ± 8.6 µM | EC50 (HEK 293 cells): > 140 µM | EC50 [4, 9]: > 280 µM | L. mexicana EC50 ([4]; promastigotes): low activity

From publication PMC12156181, “Antitrypanosomal and Antileishmanial Activities of Tacca leontopetaloides Tubers and Zanthoxylum zanthoxyloides Stem Bark” (Molecules, 2025)
